{
  "source": "patent US20090004145A1",
  "about": "“COMPOSITIONS AND METHODS INVOLVING GENE THERAPY AND PROTEASOME MODULATION” (priority 2006, published 2009)",
  "key": {"[1]": {"test_system": "p53, pJNK, p38MAPK, p44/42MAPK in 2008 cells", "experiment": "Western blotting of endogenous ubiquitinated proteins", "type": "cell-based, human", "conditions": "24 h", "experimental": "FIG. 16. Expression of endogenous ubiquitinated proteins is increased in MG132-treated CDDP-sensitive tumor cells but not in CDDP-resistant tumor cells. CDDP-resistant (2008/C*13 R) and sensitive (2008) ovarian tumor cells were plated in six-well plates. At 24 h after plating cells were treated with PBS or MG132. At 24 h after treatment cells were harvested, lysates prepared and subjected to western blotting. Primary antibodies used were anti-human p53, anti-human pJNK, antihuman-p38MAPK and anti-human p44/42MAPK antibody. […] Beta-actin was used as internal loading control.\nFIG. 19. SiRNA-mediated inhibition of Beta-5 subunit expression of the 20S proteasome in CDDP-sensitive tumor cells results in increased endogenous protein expression. CDDP-sensitive (2008) ovarian tumor cells were plated in six-well plates. At 24 h after plating cells were treated with PBS, control SiRNA, or beta-5 specific SiRNAs (100 nM). At 48 h after treatment cells were harvested, lysates prepared and subjected to western blotting. Primary antibodies used were anti-human beta-5 antibody, anti-human p53 antibody and anti-human pJNK antibody. […] Beta-actin was used as internal loading control.\nExpression of Endogenous Ubiquitinated Proteins is Increased in MG132-Treated CDDP-Sensitive Tumor Cells but not in CDDP-Resistant Tumor Cells. […]"}, "[2]": {"test_system": "MDA-7 protein in 2008/C*13 R cells", "experiment": "Western blotting of MDA-7 protein expression", "type": "cell-based, human", "conditions": "48 h, vs Ad-mda7 alone", "experimental": "FIG. 4. MDA-7 protein expression is increased in CDDP-Resistant Ovarian tumor cells in a time-dependent and dose-dependent manner. FIG. 4A, Ovarian tumor cells (2008 and 2008/C*13 R) seeded in six-well plates were treated with PBS, Ad-luc or Ad-mda7 (3000 vp/cell). Cells were harvested on day 1 and day 2 after treatment and analyzed for MDA-7 protein expression by western blotting. […] Beta-actin was used as an internal loading control. FIG. 4B, Ovarian tumor cells (2008 and 2008/C*13 R) seeded in six-well plates were treated with different doses of Ad-mda7 (1000, 3000, 5000 or 7500 vp/cell). Untreated cells served as control. Cells were harvested on day 2 after treatment and analyzed for MDA-7 protein expression by western blotting. […] Beta-actin was used as an internal loading control. […] However, MDA-7 protein was higher in the supernatant of Ad-mda7-treated 2008/C*13 R cells compared to Ad-mda7-treated 2008 cells.\nFIG. 11. […]\nMDA-7 Protein Expression is Increased in CDDP-Resistant Ovarian Tumor Cells in a Time-dependent and Dose-Dependent Manner. […] Cells were harvested on day 1 and day 2 after treatment and analyzed for MDA-7 protein expression by western blotting. […] Cells were harvested on day 2 after treatment and analyzed for MDA-7 protein expression by western blotting. […]"}},
  "note": "Where a SMILES comes first, the peptide text is derived from it. The star is where a group is joined. Cbz = O=C(OCc1ccccc1)*",
  "data": [
    {"smiles": "CC(C)C[C@@H](C=O)NC(=O)[C@H](CC(C)C)NC(=O)[C@H](CC(C)C)NC(=O)OCc1ccccc1", "note": "[MG132] (Cbz-Leu-Leu-Leu-aldehyde)", "values": [
      {"measurement": "expression of p53, pJNK, p38MAPK, p44/42MAPK", "setting": "[1]", "result": "increased expression"},
      {"measurement": "MDA-7 protein expression with proteasome inhibitor", "setting": "[2]", "result": "significantly increased"}
    ]}
  ]
}
